A short description of the series: Fragment solubility assay (quantitative 1H NMR). Type of series: physicochemical. To be noted: NMR buffer, overnight incubation, 1H NMR quantified against 1 mM caffeine standard.

Structures are written as SMILES.

For the molecule `COc1cc(COc2ccc(S(=O)(=O)[O-])c3ccccc23)cc(OC)c1.[Na+]` [Compound 40], the “Kin. Sol.” value is given as 320 µM.
